Test results taken from patent US8987195B2 (priority 2012, dated 2015).
Read-outs that look alike come from different tables or passages of the source.

What was measured:
HCV genotype 1b replicon = experiment: HCV replicon assay, genotype 1b replicon EC50; assay type: cell-based, Hepatitis C virus; conditions: Hepatitis C virus, read-out: EC50 [gt-1b]
Summary of the method: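 Assay format: compound titration on stable replicon cells, no G418 during treatment, 24 to 48 hours. Lysates were assayed for replicon RNA (hybridization/protection or TaqMan) or luciferase; EC50 fitted to four parameters against DMSO.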

[1] = biological target: HCV NS3/4A protease genotype 1b (Hepatitis C virus genotype 1b, UniProt P26663); experiment: HCV NS3/4A protease time-resolved fluorescence (TRF) assay, Ki against genotype 1b; assay type: biochemical
Summary of the method: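 Ki was converted from fitted IC50 using IC50=Ki(1+[S]/KM) and 25 nM substrate. Protease (genotype 1b 0.2 nM, A156T 0.4 nM, 3a 0.025 nM) and compound were pre-mixed 30 min in pH 7.5 HEPES/NaCl/glycerol/DTT buffer. Cleavage then proceeded 2.5 h at room temperature, detected by time-resolved europium fluorescence (340/615 nm).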

[2] = IC50 [gt-1b] (nM), NS3/4A genotype 1b, enzyme 0.2 nM
[3] = HCV replicon, genotype 1b, K+ salt
[4] = IC50 [gt-1b], NS3/4A protease TRF assay, genotype 1b enzyme 0.2 nM, K+ salt
[5] = genotype 1b replicon, HCOOH salt
[6] = IC50 [gt-1b] (nM), NS3/4A genotype 1b, enzyme 0.2 nM, HCOOH salt

Structure (SMILES)	EC50 (HCV genotype 1b replicon; genotype 1b replicon)	IC50 [1, 2]	also measured
CCc1nc2ccc(OC)cc2c2c1O[C@]1(CC2)C[C@H]2C(=O)N[C@]3(C(=O)NS(=O)(=O)C4(C)CC4)C[C@H]3/C=C\CCCCC[C@H](NC(=O)OCC(C)C)C(=O)N2C1 [Example 337, 2-methylpropyl [(2R,6S,12Z,13aS,14aR,16aS)-5′-ethyl-9′-methoxy-14a-{[(1-methylcyclopropyl)sulfonyl]carbamoyl}-5,16-dioxo-1,1′,2′,5,6,7,8,9,10,11,13a,14,14a,15,16,16a-hexadecahydrospiro[cyclopropa[e]pyrrolo[1,2-a][1,4]diazacyclopentadecine-2,3′-pyrano[2,3-c]quinolin]-6-yl]carbamate]	2.37 nM	0.009 nM	
CC(C)(C)OC(=O)N[C@H]1CCCCC/C=C\[C@@H]2C[C@@]2(C(=O)NS(=O)(=O)C2(C)CC2)NC(=O)[C@@H]2C[C@]3(CCc4c(c(C(F)F)nc5ccc(Cl)cc45)O3)CN2C1=O [Example 331, tert-butyl [(2R,6S,12Z,13aS,14aR,16aS)-9′-chloro-5′-(difluoromethyl)-14a-{[(1-methylcyclopropyl)sulfonyl]carbamoyl}-5,16-dioxo-1,1′,2′,5,6,7,8,9,10,11,13a,14,14a,15,16,16a-hexadecahydrospiro[cyclopropa[e]pyrrolo[1,2-a][1,4]diazacyclopentadecine-2,3′-pyrano[2,3-c]quinolin]-6-yl]carbamate]	6.71 nM	0.01 nM	
Cc1nc2ccccc2c2c1O[C@]1(CC2)C[C@H]2C(=O)N[C@]3(C(=O)NS(=O)(=O)C4(C)CC4)C[C@H]3/C=C\CCCCC[C@H](NC(=O)OC3CCCC3)C(=O)N2C1 [Example 96, cyclopentyl [(2R,6S,12Z,13aS,14aR,16aS)-5′-methyl-14a-{[(1-methylcyclopropyl)sulfonyl]carbamoyl}-5,16-dioxo-1,1′,2′,5,6,7,8,9,10,11,13a,14,14a,15,16,16a-hexadecahydrospiro[cyclopropa[e]pyrrolo[1,2-a][1,4]diazacyclopentadecine-2,3′-pyrano[2,3-c]quinolin]-6-yl]carbamate]	0.796 nM	0.01 nM	
COc1ccc2nc(C)c3c(c2c1)[C@@H](F)C[C@]1(C[C@H]2C(=O)N[C@]4(C(=O)NS(=O)(=O)C5(C)CC5)C[C@H]4/C=C\CCCCC[C@H](NC(=O)OC(C)(C)C)C(=O)N2C1)O3 [Example 354, tert-butyl [(1′S,2S,6S,12Z,13aS,14aR,16aS)-1′-fluoro-9′-methoxy-5′-methyl-14a-{[(1-methylcyclopropyl)sulfonyl]carbamoyl}-5,16-dioxo-1,1′,2′,5,6,7,8,9,10,11,13a,14,14a,15,16,16a-hexadecahydrospiro[cyclopropa[e]pyrrolo[1,2-a][1,4]diazacyclopentadecine-2,3′-pyrano[2,3-c]quinolin]-6-yl]carbamate]	103 nM	0.169 nM	
COc1ccc2nc(C(F)(F)F)c3c(c2c1)CC[C@]1(C[C@H]2C(=O)N[C@]4(C(=O)NS(=O)(=O)C5(C)CC5)C[C@H]4/C=C\CCCCC[C@H](NC(=O)OC(C)(C)C)C(=O)N2C1)O3 [Example 5, tert-Butyl (2R,6S,13aS,14aR,16aS,Z)-9′-methoxy-14a-(1-methylcyclopropylsulfonylcarbamoyl)-5,16-dioxo-5′-(trifluoromethyl)-1′,2′,3,5,6,7,8,9,10,11,13a,14,14a,15,16, 16a-hexadecahydro-1H-spiro[cyclopropa[e]pyrrolo[1,2-a][1,4]diazacyclopentadecine-2,3′-pyrano[2,3-c]quinoline]-6-ylcarbamate]	1.36 nM	0.015 nM	
COc1ccc2nc(C3CCC3)c3c(c2c1)CC[C@]1(C[C@H]2C(=O)N[C@]4(C(=O)NS(=O)(=O)C5(C)CC5)C[C@H]4/C=C\CCCCC[C@H](NC(=O)OC4CCCC4)C(=O)N2C1)O3 [Example 170, cyclopentyl [(2R,6S,12Z,13aS,14aR,16aS)-5′-cyclobutyl-9′-methoxy-14a-{[(1-methylcyclopropyl)sulfonyl]carbamoyl}-5,16-dioxo-1,1′,2′,5,6,7,8,9,10,11,13a,14,14a,15,16,16a-hexadecahydrospiro[cyclopropa[e]pyrrolo[1,2-a][1,4]diazacyclopentadecine-2,3′-pyrano[2,3-c]quinolin]-6-yl]carbamate]	2.65 nM	0.013 nM	
COc1ccc2nc(C)c3c(c2c1)CC[C@]1(C[C@H]2C(=O)N[C@]4(C(=O)NS(=O)(=O)C5(C)CC5)C[C@H]4/C=C\CCCCC[C@H](NC(=O)OC(C)(C)C(F)(F)F)C(=O)N2C1)O3 [Example 254, 1,1,1-trifluoro-2-methylpropan-2-yl [(2R,6S,12Z,13aS,14aR,16aS)-9′-methoxy-5′-methyl-14a-{[(1-methylcyclopropyl)sulfonyl]carbamoyl}-5,16-dioxo-1,1′,2′,5,6,7,8,9,10,11,13a,14,14a,15,16,16a-hexadecahydrospiro[cyclopropa[e]pyrrolo[1,2-a][1,4]diazacyclopentadecine-2,3′-pyrano[2,3-c]quinolin]-6-yl]carbamate]			EC50 (HCV genotype 1b replicon; genotype 1b replicon, K+ salt): 1.58 nM; IC50 ([1]; IC50 [gt-1b] (nM), NS3/4A genotype 1b, enzyme 0.2 nM, K+ salt): 0.01 nM
CC(C)COC(=O)N[C@H]1CCCCC/C=C\[C@@H]2C[C@@]2(C(=O)NS(=O)(=O)C2(C)CC2)NC(=O)[C@@H]2C[C@]3(CCc4c(c(C(F)(F)F)nc5ccc(Cl)cc45)O3)CN2C1=O [Example 383, 2-methylpropyl [(2R,6S,12Z,13aS,14aR,16aS)-9′-chloro-14a-{[(1-methylcyclopropyl)sulfonyl]carbamoyl}-5,16-dioxo-5′-(trifluoromethyl)-1,1′,2′,5,6,7,8,9,10,11,13a,14,14a,15,16,16a-hexadecahydrospiro[cyclopropa[e]pyrrolo[1,2-a][1,4]diazacyclopentadecine-2,3′-pyrano[2,3-c]quinolin]-6-yl]carbamate]			EC50 (HCV genotype 1b replicon; HCV replicon, genotype 1b): 38.3 nM; IC50 ([1]; IC50 [gt-1b], NS3/4A protease TRF assay, genotype 1b enzyme 0.2 nM): 0.024 nM
COc1ccc2nc(C(F)F)c3c(c2c1)CC[C@]1(C[C@H]2C(=O)N[C@]4(C(=O)NS(=O)(=O)C5(C)CC5)C[C@H]4/C=C\CCCCC[C@H](NC(=O)O[C@H](C)C(C)C)C(=O)N2C1)O3 [Example 443, (2R)-3-methylbutan-2-yl [(2R,6S,12Z,13aS,14aR,16aS)-5′-(difluoromethyl)-9′-methoxy-14a-{[(1-methylcyclopropyl)sulfonyl]carbamoyl}-5,16-dioxo-1,1′,2′,5,6,7,8,9,10,11,13a,14,14a,15,16,16a-hexadecahydrospiro[cyclopropa[e]pyrrolo[1,2-a][1,4]diazacyclopentadecine-2,3′-pyrano[2,3-c]quinolin]-6-yl]carbamate]			EC50 (HCV genotype 1b replicon; [3]): 1.79 nM; IC50 [1, 4]: 0.025 nM
COc1ccc2nc(C)c3c(c2n1)[C@H](F)C[C@]1(C[C@H]2C(=O)N[C@]4(C(=O)NS(=O)(=O)C5(C)CC5)C[C@H]4/C=C\CCCCC[C@H](NC(=O)OC(C)(C)C(F)(F)F)C(=O)N2C1)O3 [Example 380, 1,1,1-trifluoro-2-methylpropan-2-yl [(2S,6S,10′R,12Z,13aS,14aR,16aS)-10′-fluoro-2′-methoxy-6′-methyl-14a-{[(1-methylcyclopropyl)sulfonyl]carbamoyl}-5,16-dioxo-1,5,6,7,8,9,9′,10,10′,11,13a,14,14a,15,16,16a-hexadecahydrospiro[cyclopropa[e]pyrrolo[1,2-a][1,4]diazacyclopentadecine-2,8′-pyrano[2,3-c][1,5]naphthyridin]-6-yl]carbamate]			EC50 (HCV genotype 1b replicon; [3]): 5.62 nM; IC50 [1, 4]: 0.021 nM
COc1ccc2c3c(c(C4CC4)nc2c1)O[C@]1(CC3)C[C@H]2C(=O)N[C@]3(C(=O)NS(=O)(=O)C4(C)CC4)C[C@H]3/C=C\CCCCC[C@H](NC(=O)CC(C)(C)C)C(=O)N2C1 [Example 269, (2R,6S,12Z,13aS,14aR,16a5)-5′-cyclopropyl-6-[(3,3-dimethylbutanoyl)amino]-8′-methoxy-N-[(1-methylcyclopropyl)sulfonyl]-5,16-dioxo-1,1′,2′,6,7,8,9,10,11,13a,14,15,16,16a-tetradecahydrospiro[cyclopropa[e]pyrrolo[1,2-a][1,4]diazacyclopentadecine-2,3′-pyrano[2,3-c]quinoline]-14a(5H)-carboxamide]			EC50 (HCV genotype 1b replicon; [5]): 11.9 nM; IC50 [1, 6]: 0.337 nM
COc1ccc2c3c(c(C4CC4)nc2c1)O[C@]1(CC3)C[C@H]2C(=O)N[C@]3(C(=O)NS(=O)(=O)C4(C)CC4)C[C@H]3/C=C\CCCCC[C@H](NC(=O)CC3CCCC3)C(=O)N2C1 [Example 270, (2R,6S,12Z,13aS,14aR,16aS)-6-[(cyclopentylacetyl)amino]-5′-cyclopropyl-8′-methoxy-N-[(1-methylcyclopropyl)sulfonyl]-5,16-dioxo-1,1′,2′,6,7,8,9,10,11,13a,14,15,16,16a-tetradecahydrospiro[cyclopropa[e]pyrrolo[1,2-a][1,4]diazacyclopentadecine-2,3′-pyrano[2,3-c]quinoline]-14a(5H)-carboxamide]			EC50 (HCV genotype 1b replicon; [5]): 24.2 nM; IC50 [1, 6]: 0.044 nM
